# Results published in the SangsterLogP compilation.
row,SMILES,logP
1,CCNN=Nc1ccc(C(N)=O)cc1,1.19
2,CCCCCN(C)N=Nc1ccc(S(=O)(=O)Nc2ccccn2)cc1,2.16
3,CCN(CC)/N=N/c1ccc(C(N)=O)cc1,2.26
4,CN(C)N=Nc1ccc(S(=O)(=O)Nc2ccno2)cc1,0.42
5,CCCCCN(C)N=Nc1ccc(C(=O)O)cc1,1.46
6,CCCN(C)N=Nc1ccc(C(=O)O)cc1,0.46
7,CCCCN(C)/N=N/c1ccc(C(N)=O)cc1,2.68
8,COC(=O)c1ccc(/N=N/N(C)C)cc1,3.22
9,COC(=O)c1cccc(/N=N/N(C)C)c1,3.12
10,CCN(CC)N=Nc1ccccc1C(=O)O,1.49
11,CN(C)/N=N/c1ccc([N+](=O)[O-])cc1,3.25
12,CCN(C)/N=N/c1ccc(C(N)=O)cc1,1.69
13,CCN(C)/N=N/c1ccccc1C(N)=O,2.59
14,CC(C)N(N=Nc1ccc(C(N)=O)cc1)C(C)C,3
15,CC(=O)N(C)N=Nc1ccc(C(N)=O)cc1,1.37
16,CCCN(C)N=Nc1ccc(C(N)=O)cc1,2.17
17,CCCCCN(C)N=Nc1ccc(C(N)=O)cc1,3.18
18,COc1ccc(/N=N/N(C)C)cc1,2.99
19,CN(C)N=Nc1ccc(S(=O)(=O)CCO)cc1,1.15
20,CCCCN(C)/N=N/c1ccccc1C(N)=O,3.52

row,SMILES,logP
1,CNN=Nc1ccc(C(N)=O)cc1,0.48
2,CN(C)/N=N/c1cccc(C(=O)O)c1,-0.38
3,CCN(CC)N=Nc1ccc(S(C)(=O)=O)cc1,2.6
4,CN(C)/N=N/c1ccccc1C(=O)O,-0.28
5,CCOC(=O)c1ccc(N=NN(C)CCO)cc1,2.66
6,CN(CC(F)(F)F)N=Nc1ccc(C(N)=O)cc1,1.86
7,CN(C)/N=N/c1ccc(S(C)(=O)=O)cc1,1.59
8,CCOC(=O)c1ccc(/N=N/N(C)C)cc1,3.66
9,CN(C)/N=N/c1ccc(C(F)(F)F)cc1,4
10,CN(C)/N=N/c1cccc(C(N)=O)c1,1.3
11,CCN(C)N=Nc1ccccc1C(=O)O,0.11
12,CCCC(C)N(C)N=Nc1ccc(C(=O)O)cc1 (stereo not given),1.35
13,CN(C)/N=N/c1ccc(S(N)(=O)=O)cc1,0.85
14,COC(=O)c1ccccc1/N=N/N(C)C,2.51
15,CCN(CC)N=Nc1ccccc1C(N)=O,2.96
16,CCN(CC)N=Nc1cc([N+](=O)[O-])cc([N+](=O)[O-])c1,4.69
17,C=CCN(CC=C)N=Nc1ccccc1C(=O)O,0.62
18,CCCCCN(C)N=Nc1ccc(S(=O)(=O)Nc2nccc(C)n2)cc1,2.34
19,CN(Cc1ccccc1)N=Nc1ccc(C(N)=O)cc1,2.77
20,CCCCN(C)N=Nc1ccc(C(=O)O)cc1,0.96
